Laboratory results: US20250129067A1 (Progentos Therapeutics, Inc., priority 2021, published 2025)
Where “and” joins values, the source holds several entries; their conditions need not be identical. Equal entries are not always repeated.

Tests used:
PDGFRα = PDGFRα (Homo sapiens (Human), UniProt P16234); test: PDGFRα kinase enzyme assay (Promega PDGFRα Kinase Enzyme System, ADP-Glo); type: biochemical; conditions: 11-point dose response, 10,000 nM to 0.169 nM, 150 uM ATP, BLQ = below limit of quantitation; for IC50: read-out: IC50 Values on PDGFRα Kinase Inhibition, IC50
Outline: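 Read-out was ADP-Glo: remaining ATP depleted, ADP converted to luminescence and compared with a standard curve.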

[1] = test system: Oligodendrocyte progenitor cells (OPCs); test: In vitro OPC differentiation assay, MBP expression (immunocytochemistry); conditions: 72 hours of treatment; fold change over vehicle
Method: Cortices from postnatal day (P) 1-3 rats were dissected and collected into ice cold Hank's Balanced Salt Solution (HBSS). […] Briefly, the cortical cell suspension was centrifuged and washed with buffer (0.5% BSA in PBS) and labeled with Anti-A2B5 MicroBeads (10 μL beads per 1×10^7 cells) for 15 minutes at 4° C. Following the incubation, cells were washed once with BSA buffer to remove unlabeled beads. A2B^5 positive cells were eluted on the column using the AutoMACS® (Miltenyi, as per manufacturer's protocol using “possel-s” program). Eluted cells were further washed twice with OPC growth media. Cell count was performed using Countess III cell counter (ThermoFisher; AMQAX2000) and cells were plated.
A2B5+ OPCs were plated in poly-d-lysine (PDL) coated T75 flask at a density of ˜3 million cells per flask. […] TrypLE was normalized by adding 10 mL growth media and cells were centrifuged at 1400 rpm for 10 minutes. […] The plates were allowed to sit at room temperature for 15 minutes to ensure proper dispersion of cells in a well. The plates were then transferred to the incubator (37° C.; 5% CO2).
Cells were then incubated for 72 hours at 37° C., 5% CO2 before immunostaining for MBP marker expression.
Following 72 hours of treatment, cells were fixed with 4% paraformaldehyde for 15 minutes then washed three times in DPBS. Prior to staining, cells were blocked for 15 minutes in 10% normal goat serum containing 1% BSA and 0.1% Triton X-100 in DPBS. Primary antibody (MBP @ 1:2000; Abcam AB7349) was applied to cells overnight at 4° C. in incubation solution containing 1% normal goat serum, 1% BSA, and 0.1% Triton X-100 in DPBS.
The number of differentiated MBP+ cells was normalized to the total nuclei count and percent differentiated MBP+ cells were reported.

[2] = test system: GPR17+ cells (newly differentiated oligodendrocytes); test: In vivo OPC differentiation, GPR17+ cells in brain; conditions: Mus musculus, po, 24 h, read-out: GPR17 Fold Induction (Over Vehicle)
[3] = test system: Oligodendrocyte progenitor cells (OPCs); test: In vitro OPC differentiation assay, GPR17 expression (immunocytochemistry); conditions: 3 μM (10× concentration, final 0.3 μM); 72 hours; fold change over vehicle

PDGFRα, sequence (P16234 24-1089): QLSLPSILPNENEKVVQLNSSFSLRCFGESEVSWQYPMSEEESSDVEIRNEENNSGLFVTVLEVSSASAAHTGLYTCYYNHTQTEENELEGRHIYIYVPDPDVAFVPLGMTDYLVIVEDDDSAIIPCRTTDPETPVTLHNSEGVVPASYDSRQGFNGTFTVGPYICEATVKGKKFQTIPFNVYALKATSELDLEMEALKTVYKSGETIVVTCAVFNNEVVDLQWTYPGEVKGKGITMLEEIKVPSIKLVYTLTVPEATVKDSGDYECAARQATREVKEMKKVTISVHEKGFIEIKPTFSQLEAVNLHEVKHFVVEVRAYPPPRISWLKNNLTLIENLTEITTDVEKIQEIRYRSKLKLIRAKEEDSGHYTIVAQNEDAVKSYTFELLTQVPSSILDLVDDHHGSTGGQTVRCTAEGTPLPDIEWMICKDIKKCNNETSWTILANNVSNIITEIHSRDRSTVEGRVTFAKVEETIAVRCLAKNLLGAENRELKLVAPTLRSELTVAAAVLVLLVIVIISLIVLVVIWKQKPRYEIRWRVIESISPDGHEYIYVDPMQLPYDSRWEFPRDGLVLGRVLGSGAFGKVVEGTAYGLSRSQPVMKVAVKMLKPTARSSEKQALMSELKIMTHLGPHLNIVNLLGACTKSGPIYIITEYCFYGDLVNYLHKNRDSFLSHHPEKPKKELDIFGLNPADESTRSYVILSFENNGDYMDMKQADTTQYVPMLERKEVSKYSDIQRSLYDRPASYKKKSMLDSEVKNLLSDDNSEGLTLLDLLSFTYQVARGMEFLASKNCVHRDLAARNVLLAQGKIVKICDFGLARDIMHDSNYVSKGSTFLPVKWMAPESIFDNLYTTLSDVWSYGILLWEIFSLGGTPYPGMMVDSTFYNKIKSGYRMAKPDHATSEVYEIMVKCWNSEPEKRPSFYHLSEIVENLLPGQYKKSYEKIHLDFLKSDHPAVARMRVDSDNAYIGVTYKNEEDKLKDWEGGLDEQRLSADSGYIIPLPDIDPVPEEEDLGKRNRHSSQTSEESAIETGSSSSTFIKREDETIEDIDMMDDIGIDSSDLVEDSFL

Row | IC50 (PDGFRα) [nM] | MBP Fold Induction (Over vehicle) [1] | GPR17 Fold Induction (Over Vehicle; 3 μM) [3] | IC50 Values on PDGFRα Kinase Inhibition, IC50 (nM) (PDGFRα) | Structure (SMILES) | fold induction at 30 mg/kg [2] | fold induction at 10 mg/kg [2] | fold induction at 3 mg/kg [2] | fold induction at 6 mg/kg [2]
1 | 2070 | 7.25 | 5.98 | – | Cn1cc(-c2ccc3c(N4CCN(c5ncc(Cc6cccs6)cn5)CC4)cnn3c2)cn1 [Compound 178, 6-(1-methyl-1H-pyrazol-4-yl)-3-(4-(5-(thiophen-2-ylmethyl)pyrimidin-2-yl)piperazin-1-yl)pyrazolo[1,5-a]pyridine] | 0.96 | – | – | –
2 | 662 | 10.12 | 5.37 | – | Cn1cc(-c2ccc3c(N4CCN(c5ncc(Cc6ccncc6)cn5)CC4)cnn3c2)cn1 [Compound 179, 6-(1-methyl-1H-pyrazol-4-yl)-3-(4-(5-(pyridin-4-ylmethyl)pyrimidin-2-yl)piperazin-1-yl)pyrazolo[1,5-a]pyridine] | – | 8.36 | – | –
3 | 692 | 46.15 | 9.27 | – | CC(C)(C)OC(=O)N1CCN(c2cnn3cc(-c4cnn(CCCN5CCOCC5)c4)ccc23)CC1 [Compound 233, tert-butyl 4-(6-(1-(3-morpholinopropyl)-1H-pyrazol-4-yl)pyrazolo[1,5-a]pyridin-3-yl)piperazine-1-carboxylate] | – | 2.16 | – | –
4 | 311 | 11.56 | 7.16 | – | CC(C)n1cc(-c2ccc3c(N4CCN(C(=O)OC(C)(C)C)CC4)cnn3c2)cn1 [Compound 234, tert-butyl 4-(6-(1-isopropyl-1H-pyrazol-4-yl)pyrazolo[1,5-a]pyridin-3-yl)piperazine-1-carboxylate] | – | – | 1.15 | –
5 | 1260 | 1.64 | 6.40 | – | Cn1cc(-c2ccc3c(N4CCN(c5ccc(Cc6ccccc6)cn5)CC4)cnn3c2)cn1 [Compound 249, 3-[4-(5-benzylpyridin-2-yl)piperazin-1-yl]-6-(1-methyl-1H-pyrazol-4-yl)pyrazolo[1,5a]pyridine] | 10.6 | – | – | –
6 | 1160 | 9.20 | 4.97 | – | Cn1cc(-c2ccc3c(N4CCN(c5ncc(Cc6cccnc6)cn5)CC4)cnn3c2)cn1 [Compound 251, 6-(1-methyl-1H-pyrazol-4-yl)-3-{4-[5-(pyridin-3-ylmethyl)pyrimidin-2-yl]piperazin-1-yl}pyrazolo[1,5-a]pyridine] | – | – | 1.22 | –
7 | 267 | 4.04 | 6.77 | – | COc1ccc(Cc2cnc(N3CCN(c4cnn5cc(-c6cnn(C)c6)ccc45)CC3)nc2)cc1 [Compound 254, 3-(4-(5-(4-methoxybenzyl)pyrimidin-2-yl)piperazin-1-yl)-6-(1-methyl-1H-pyrazol-4-yl)pyrazolo[1,5-a]pyridine] | – | 10.7 | – | –
8 | 803 | 16.36 | 9.21 | – | CC(c1ccc(F)cc1)c1cnc(N2CCN(c3cnn4cc(-c5cnn(C)c5)ccc34)CC2)nc1 (stereo not drawn) [Compound 258, 3-(4-(5-(1-(4-fluorophenyl)ethyl)pyrimidin-2-yl)piperazin-1-yl)-6-(1-methyl-1H-pyrazol-4-yl)pyrazolo[1,5-a]pyridine] | – | – | 2.82 | –
9 | 377 | 11.66 | 6.26 | – | C[C@@H](OC(=O)N1CCN(c2cnn3cc(-c4cnn(C)c4)ccc23)CC1)c1ccccn1 [Compound 260, (1R)-1-pyridin-2-ylethyl 4-[6-(1-methyl-1H-pyrazol-4-yl)pyrazolo[1,5-a]pyridin-3-yl]piperazine-1-carboxylate] | – | 2.79 | – | –
10 | – | 20.78 | 7.72 | BLQ | CC(OC(=O)N1CCN(c2cnn3cc(-c4cnn(C)c4)ccc23)CC1)c1ccc(Cl)cc1 (stereo not drawn) [Compound 265, 1-(4-chlorophenyl)ethyl 4-(6-(1-methyl-1H-pyrazol-4-yl)pyrazolo[1,5-a]pyridin-3-yl)piperazine-1-carboxylate] | – | – | 7.92 | –
11 | – | 2.33 | 5.62 | BLQ | Cc1ccc([C@@H](C)OC(=O)N2CCN(c3cnn4cc(-c5cnn(C)c5)ccc34)CC2)cc1 [Compound 267, (1R)-1-(4-methylphenyl)ethyl 4-[6-(1-methyl-1H-pyrazol-4-yl)pyrazolo[1,5-a]pyridin-3-yl]piperazine-1-carboxylate] | – | – | 5.75 | 7.52
12 | 138 | 13.54 | 5.70 | – | C[C@@H](OC(=O)N1CCN(c2cnn3cc(-c4cnn(C)c4)ccc23)CC1)c1cccc2ccccc12 [Compound 269, (1R)-1-(1-naphthyl)ethyl 4-[6-(1-methyl-1H-pyrazol-4-yl)pyrazolo[1,5-a]pyridin-3-yl]piperazine-1-carboxylate] | – | – | 0.91 | –
13 | 865 | 40.13 | 6.11 | – | Cn1cc(-c2ccc3c(N4CCN(C(=O)OCc5cccc(C#N)c5)CC4)cnn3c2)cn1 [Compound 272, 3-cyanobenzyl 4-[6-(1-methyl-1H-pyrazol-4-yl)pyrazolo[1,5-a]pyridin-3-yl]piperazine-1-carboxylate] | – | 5.93 | 2.47 | –
14 | 49 | 24.95 | 5.01 and 9.78 | – | C[C@@H](NC(=O)N1CCN(c2cnn3cc(-c4cnn(C)c4)ccc23)CC1)c1ccc(Cl)cc1 [Compound 274, N-[(1R)-1-(4-chlorophenyl)ethyl]-4-[6-(1-methyl-1H-pyrazol-4-yl)pyrazolo[1,5-a]pyridin-3-yl]piperazine-1-carboxamide] | – | – | 6.67 | –
15 | 67 | 2.71 | 6.70 | – | Cn1cc(-c2ccc3c(N4CCN(C(=O)NCc5ccc(Cl)cc5)CC4)cnn3c2)cn1 [Compound 275, N-(4-chlorobenzyl)-4-[6-(1-methyl-1H-pyrazol-4-yl)pyrazolo[1,5-a]pyridin-3-yl]piperazine-1-carboxamide] | – | – | 5.31 | –
16 | 208 | 8.37 | 5.36 | – | Cn1cc(-c2ccc3c(N4CCN(C(=O)N5CCC[C@@H]5c5ccc(Cl)cc5)CC4)cnn3c2)cn1 [Compound 277, 3-(4-{[(2R)-2-(4-chlorophenyl)pyrrolidin-1-yl]carbonyl}piperazin-1-yl)-6-(1-methyl-1H-pyrazol-4-yl)pyrazolo[1,5-a]pyridine] | – | – | 0.96 | –
17 | 824 | 5.13 | 6.67 | – | CC1CC(OC(=O)N2CCN(c3cnn4cc(-c5cnn(C)c5)ccc34)CC2)C1 (stereo not drawn) [Compound 309, 3 methylcyclobutyl 4-[6-(1-methyl-1H-pyrazol-4-yl)pyrazolo[1,5-a]pyridin-3-yl]piperazine-1-carboxylate] | – | 1.2 | – | –
18 | 39.1 | 10.47 | 5.77 | – | C[C@@H](OC(=O)N1CCN(c2cnn3cc(-c4cnn(C)c4)ccc23)CC1)c1ccc(Cl)c(Cl)c1 [Compound 311, (1R)-1-(3,4-dichlorophenyl)ethyl 4-[6-(1-methyl-1H-pyrazol-4-yl)pyrazolo[1,5-a]pyridin-3-yl]piperazine-1-carboxylate] | – | – | 2.52 | –
19 | 145 | 18.49 | 9.00 | – | C[C@@H](OC(=O)N1CCN(c2cnn3cc(-c4cnn(C)c4)ccc23)CC1)c1ccc2ccccc2c1 [Compound 312, (1R)-1-(2-naphthyl)ethyl 4-[6-(1-methyl-1H-pyrazol-4-yl)pyrazolo[1,5-a]pyridin-3-yl]piperazine-1-carboxylate] | – | – | 1.53 | –
20 | – | 116.12 | 10.56 | BLQ | C[C@@H](OC(=O)N1CCN(c2cnn3cc(-c4cnn(C)c4)ccc23)CC1)c1ccc(C(F)(F)F)cc1 [Compound 313, (1R)-1-[4-(trifluoromethyl)phenyl]ethyl 4-[6-(1-methyl-1H-pyrazol-4-yl)pyrazolo[1,5-a]pyridin-3-yl]piperazine-1-carboxylate] | – | – | 10.5 | –
21 | 194 | 34.99 | 9.10 | – | Cn1cc(-c2ccc3c(N4CCN(C(=O)OCc5ccc(C#N)cc5)CC4)cnn3c2)cn1 [Compound 316, 4-cyanobenzyl 4-[6-(1-methyl-1H-pyrazol-4-yl)pyrazolo[1,5-a]pyridin-3-yl]piperazine-1-carboxylate] | – | – | 2.36 | –

Row | Structure (SMILES) | IC50 (PDGFRα) [nM] | MBP Fold Induction (Over vehicle) [1] | GPR17 Fold Induction (Over Vehicle; 3 μM) [3] | IC50 Values on PDGFRα Kinase Inhibition, IC50 (nM) (PDGFRα) | fold induction at 30 mg/kg [2] | fold induction at 10 mg/kg [2] | fold induction at 3 mg/kg [2] | fold induction at 6 mg/kg [2]
22 | C[C@H](OC(=O)N1CCN(c2cnn3cc(-c4cnn(C)c4)ccc23)CC1)c1ccc(Cl)cc1 [Compound 271, (1S)-1-(4-chlorophenyl)ethyl 4-[6-(1-methyl-1H-pyrazol-4-yl)pyrazolo[1,5-a]pyridin-3-yl]piperazine-1-carboxylate] | 1490 | 2.21 | 6.67 | – | – | – | 0.83 | –
